The source of these data is PubChem BioAssay (NCI).

The term GI50 denotes the concentration at which growth is held to half of that of the control. One may read the TGI as the concentration at which net growth stops. Read a high TGI as less potent growth arrest.

Values joined by “and” are separate entries in the source; they are usually repeats but may differ in a detail not shown here. Identical values can stand only once.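 Exposure lasted 48 hours, with cells grown in 96-well plates and compounds tested at five concentrations. GI50 is the concentration that inhibits growth by half. TGI: total growth inhibition.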

For one assay, the system named is EKVX NSCLC. The experiment in a line: DTP human tumour cell line panel, 48 h.
On to `C#COc1cccc(Nc2c(C#N)cnc3ncc(NC(=O)CCl)cc23)c1`, for which the GI50 was > 62.5 µM and the total growth inhibition concentration (TGI) is > 62.5 µM.

For `CN(CCO)c1ccc(N2Cc3ccccc3OC3=C2C(=O)c2c(O)ccc(O)c2C3=O)cn1`, the GI50 was 0.284 µM and the TGI stood at 1.45 µM.

For `CC[C@H]1CN2CCc3cc(OC)c(OC)cc3[C@@H]2C[C@@H]1C[C@H]1NCCc2c1[nH]c1ccc(O)cc21`, the GI50 was 0.0409 µM; the total growth inhibition concentration (TGI) is 0.401 µM and 0.125 µM.

In the case of `CCCCCOc1ccc(/C=N/Nc2cc(C)nc3ccc(Br)cc23)cc1`, the GI50 is 1.63 µM and the TGI was determined as 3.11 µM.

For the compound `CC(=O)Oc1ccccc1C(=O)Nc1ncc([N+](=O)[O-])s1`, the GI50 was 2.66 µM and the TGI was > 100 µM.

In the case of `O=C1NC(=O)C(c2cccc([N+](=O)[O-])c2)=C1Nc1cc(Cl)c(O)c(Cl)c1`, the GI50 is > 25 µM and the TGI is > 25 µM.

In turn, `O=C(O)CC(NC(=O)CP(=O)(O)O)C(=O)O` (centres undefined) came in with a TGI of 7860 µM.

In the case of `OCc1ccn2c1[C@@H](O)CC2`, the concentration for total growth inhibition (TGI) was > 100 µM.

Turning to `Cc1[nH]c(/C=C2\C(=O)Nc3ccccc32)c(C)c1CCC(=O)O`, the GI50 was 20.9 µM; the total growth inhibition concentration (TGI) is 89.9 µM and 97.4 µM.

`c1ccc2c(c1)c1c(c3ccccc32)CN2CCCC2C1` (centres undefined): the TGI is > 100 µM.

For the compound `NCCSc1nc(-c2ccccc2)c(-c2ccccc2)o1`, the TGI is > 100 µM.

For `O=C(c1ccc(/C=C/c2n[nH]c3ccccc23)cc1)N1CCNCC1`, the GI50 is > 10 µM and 8.5 µM; the TGI was > 10 µM and 34.6 µM.

With `CCOC(=O)c1c(NC(=O)c2cccc(C(F)(F)F)c2)sc2c(CN(C)C)c(O)ccc12`, the GI50 is 15.2 µM and the TGI came out at 36.1 µM.

`O=C(Nc1ccc(-n2ccc3c(NC(=O)c4ccccc4)nccc32)cc1)Nc1ccc(Cl)c(Cl)c1`: the GI50 is 4.83 µM and the TGI is 44 µM.

On to `N#CC1=C(N)Oc2cc(O)ccc2C1c1cccc2ccccc12` (centres undefined), for which the GI50 is 17 µM and the concentration for total growth inhibition (TGI) was > 100 µM.

`C=C1C(=O)O[C@H]2[C@H]1CC/C(COC(=O)/C=C\C(=O)NCc1ccc(Cn3c(=O)sn(CCCC)c3=O)cc1)=C\CC[C@@]1(C)O[C@@H]21`: the GI50 was 1.48 µM and the total growth inhibition concentration (TGI) came to 2.85 µM.

Another assay has as its system HCT-116 colon. Description: DTP human tumour cell line panel, 48 h.
In the case of `C#COc1cccc(Nc2c(C#N)cnc3ncc(NC(=O)CCl)cc23)c1`, the GI50 was 14.8 µM and the TGI is > 62.5 µM.

With `CN(CCO)c1ccc(N2Cc3ccccc3OC3=C2C(=O)c2c(O)ccc(O)c2C3=O)cn1`, the 50% growth inhibitory concentration (GI50) was 0.0467 µM and the TGI is 0.223 µM.

As to `CC[C@H]1CN2CCc3cc(OC)c(OC)cc3[C@@H]2C[C@@H]1C[C@H]1NCCc2c1[nH]c1ccc(O)cc21`, the concentration for 50% growth inhibition (GI50) is 0.0196 µM and 0.0409 µM; the TGI was 0.0475 µM and 0.207 µM and 0.195 µM.

As for `CCCCCOc1ccc(/C=N/Nc2cc(C)nc3ccc(Br)cc23)cc1`, the GI50 was 1.78 µM and the TGI came out at 3.36 µM.

As for `CC(=O)Oc1ccccc1C(=O)Nc1ncc([N+](=O)[O-])s1`, the GI50 was 2.26 µM; the concentration for total growth inhibition (TGI) is 9.55 µM and > 61.2 µM.

In the case of `O=C1NC(=O)C(c2cccc([N+](=O)[O-])c2)=C1Nc1cc(Cl)c(O)c(Cl)c1`, the GI50 was > 25 µM and the TGI was > 25 µM.

Take `O=C(O)CC(NC(=O)CP(=O)(O)O)C(=O)O` (centres undefined): the GI50 is 54.6 µM and the TGI is > 10000 µM.

On to `OCc1ccn2c1[C@@H](O)CC2`, for which the total growth inhibition concentration (TGI) is > 100 µM.

In the case of `Cc1[nH]c(/C=C2\C(=O)Nc3ccccc32)c(C)c1CCC(=O)O`, the GI50 is 25.9 µM and the total growth inhibition concentration (TGI) is > 100 µM.

Regarding `c1ccc2c(c1)c1c(c3ccccc32)CN2CCCC2C1` (centres undefined), the TGI was found to be 14.7 µM.

In the case of `NCCSc1nc(-c2ccccc2)c(-c2ccccc2)o1`, the TGI is > 100 µM.

On to `O=C(c1ccc(/C=C/c2n[nH]c3ccccc23)cc1)N1CCNCC1`, for which the GI50 was 1.5 µM and 2.02 µM; the TGI was 2.88 µM and 20.9 µM.

Regarding `CCOC(=O)c1c(NC(=O)c2cccc(C(F)(F)F)c2)sc2c(CN(C)C)c(O)ccc12`, the GI50 is 3.14 µM and the concentration for total growth inhibition (TGI) was 10.3 µM.

As to `O=C(Nc1ccc(-n2ccc3c(NC(=O)c4ccccc4)nccc32)cc1)Nc1ccc(Cl)c(Cl)c1`, the GI50 is 0.488 µM and the total growth inhibition concentration (TGI) came out at 1.74 µM.

Consider `N#CC1=C(N)Oc2cc(O)ccc2C1c1cccc2ccccc12` (centres undefined), for which the GI50 was 6.52 µM and the TGI was determined as 25.7 µM.

As to `C=C1C(=O)O[C@H]2[C@H]1CC/C(COC(=O)/C=C\C(=O)NCc1ccc(Cn3c(=O)sn(CCCC)c3=O)cc1)=C\CC[C@@]1(C)O[C@@H]21`, the GI50 was 0.176 µM and the TGI came to 0.491 µM.

The next assay concerns IGROV1 ovarian. Description: DTP human tumour cell line panel, 48 h.
`C#COc1cccc(Nc2c(C#N)cnc3ncc(NC(=O)CCl)cc23)c1`: the GI50 was 17.1 µM and the total growth inhibition concentration (TGI) is > 62.5 µM.

`CN(CCO)c1ccc(N2Cc3ccccc3OC3=C2C(=O)c2c(O)ccc(O)c2C3=O)cn1`: the GI50 was 0.203 µM and the total growth inhibition concentration (TGI) is 0.636 µM.

Consider `CC[C@H]1CN2CCc3cc(OC)c(OC)cc3[C@@H]2C[C@@H]1C[C@H]1NCCc2c1[nH]c1ccc(O)cc21`, for which the 50% growth inhibitory concentration (GI50) was 0.0267 µM and 0.0328 µM; the TGI was 0.0806 µM and 0.159 µM and 0.196 µM.

Turning to `CCCCCOc1ccc(/C=N/Nc2cc(C)nc3ccc(Br)cc23)cc1`, the GI50 is 1.72 µM and the concentration for total growth inhibition (TGI) amounted to 3.37 µM.

On to `CC(=O)Oc1ccccc1C(=O)Nc1ncc([N+](=O)[O-])s1`, for which the GI50 was 2.85 µM; the TGI was 20.8 µM and > 100 µM.

Take `O=C1NC(=O)C(c2cccc([N+](=O)[O-])c2)=C1Nc1cc(Cl)c(O)c(Cl)c1`: the GI50 was > 25 µM and the concentration for total growth inhibition (TGI) is > 25 µM.
